# Measurements: patent US20240092745A1, “DRUGS AND COMPOSITIONS FOR THE TREATMENT OF OCULAR DISORDERS” (Graybug Vision, Inc., priority 2017, published 2024)
# Entries after “also recorded” stand apart in the source; their conditions may differ. Where a name gives a salt, the structure may show the parent alone. Read-outs that look alike come from different tables or passages of the source.
# Tests used:
# [1] = Determination of drug solubility in aqueous and organic solvent; type: physicochemical; conditions: for solubility: thermodynamic from solid;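 for all read-outs here: solid drug suspended at 50 mg/mL nominal in each solvent, vortexed and sonicated, then dissolved concentration in filtered supernatant quantified by HPLC against a calibration curve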
# Procedure: For each test, approximately 5-10 mg was transferred to a 10 mL glass vial. Aqueous or organic solvent was added to each vial to achieve an overall concentration of 50 mg/mL. After vortexing aggressively for 2-3 minutes and sonicating in a bath sonicator for 5 minutes, undissolved drug was spun down at 1200 rpm for 5 minutes to generate a pellet. The supernatant was collected and filtered through a 0.2 μm nylon syringe filter into HPLC vials for drug content analysis. Drug concentration was determined by comparing against a standard calibration curve.
# [2] = In vitro stability of prodrugs (degradation to parent, RP-HPLC); type: physicochemical; conditions: for degradation kinetics / hydrolysis to parent, in words: PBS (pH 7) with 10% DMSO, RP-HPLC
# Procedure: Prodrugs of interest were dissolved in PBS (pH 7) containing 10% DMSO (v/v) at a concentration of 0.1 mg/mL. The samples were incubated at 37° C. or 50° C. to simulate physiological and accelerated degradation conditions, respectively. At various time points, 500 μL of the solution was collected, filtered through a 0.2 μm nylon syringe filter and analyzed by RP-HPLC.
# Timolol-Dorzolamide bi-functional prodrugs were dissolved in a mixture of DMSO and PBS and incubated at 37° C. The solution was aliquoted and analyzed by HPLC at pre-determined time points. Timolol-Dorzolamide bi-functional prodrugs were stable for about 3 hours as evidenced by the significant reduction of prodrug peaks in HPLC after 2-3 hours (FIG. 30A and FIG. 30B). Timolol parent drug was detected as the bi-functional prodrug degraded, whereas Dorzolamide appeared in the form of prodrugs, i.e., Dorzolamide linked with 1-3 PLA units.
# [3] = organic solvent or mixture, Table 3B, DMSO, read-out: Solubility DMSO
# [4] = Table 3B, water, drug added to 50 mg/mL, read-out: Solubility Water
# [5] = organic solvent or mixture, Table 3A, DMSO, read-out: Solubility DMSO
# [6] = Table 3A, water, drug added to 50 mg/mL, read-out: Solubility Water
# [7] = organic solvent or mixture, Table 3A, DCM, read-out: Solubility DCM
Compound,"solubility [1, 3]","solubility [1, 4]","solubility [1, 5]","solubility [1, 6]",other results
"CCOC(=O)CCC(=O)O[C@H](COc1nsnc1N1CCOCC1)CN(C(=O)[C@H](C)OC(=O)[C@H](C)OC(C)=O)C(C)(C)C [Compound 117-6, Timolol-bis-N-acetyl-PLA(n=2)-O-ethyl-succinate]",> 50 mg/mL,< 1 mg/mL,,,"polymer hydrolyzed to release free Timolol ([2]; by day 13, 37° C.): approximately 50%"
"CCCCC/C=C\C/C=C\CCCCCCCC(=O)O[C@@H](CNC(C)(C)C)COc1nsnc1N1CCOCC1.O=C(O)/C=C\C(=O)O [Compound 70-1, Timolol-O-linoleic acid maleate]",> 50 mg/mL,< 0.01 mg/mL,,,"degradation kinetics / hydrolysis to parent, in words ([2]; 37° C.): degraded steadily over the 4-day period, releasing parent Timolol in a linear rate; also recorded: steady generation of the parent Timolol"
"CCN[C@H]1C[C@H](C)S(=O)(=O)c2sc(S(=O)(=O)NC(=O)[C@H](C)OC(=O)[C@H](C)OC(=O)[C@H](C)OC(=O)CCCC(=O)O[C@@H](CNC(C)(C)C)COc3nsnc3N3CCOCC3)cc21 [Compound 64-4, Timolol-O-glutarate-PLA(n=3)-Dorzolamide maleate salt]",,,,,time in which prodrug cleaves to afford the active moieties ([2]; 37° C.): less than 5 hours
"CC/C=C\C/C=C\C/C=C\C/C=C\C/C=C\C/C=C\CCC(=O)O[C@@H](C)C(=O)O[C@@H](C)C(=O)O[C@H](COc1nsnc1N1CCOCC1)CN(C(C)=O)C(C)(C)C [Compound 102-1, N-acyl-Timolol-PLA (n=2)-DHA]",,,,,"degradation kinetics / hydrolysis to parent, in words ([2]; 37° C.): steady generation of intermediate degradants and slow hydrolysis to the parent compound; also recorded: steady generation of the intermediate N-acyl-Timolol-PLA (n=1)-DHA and slow hydrolysis to parent Timolol"
"CC(=O)O[C@@H](C)C(=O)O[C@@H](C)C(=O)O[C@H](COc1nsnc1N1CCOCC1)CN(C(=O)[C@H](C)OC(=O)[C@H](C)OC(C)=O)C(C)(C)C [Compound 118-1, Timolol-bis-N-acetyl-PLA(n=2)]",> 50 mg/mL,< 0.1 mg/mL,,,"degradation kinetics / hydrolysis to parent, in words ([2]; 37° C.): degraded slightly faster than a Timolol-bis-N-acetyl PLA(n=4) (119-6)"
CCCCCCCCCCCCCCCCCC(=O)O[C@@H](C)C(=O)O[C@H](COc1nsnc1N1CCOCC1)CN(C(C)=O)C(C)(C)C [Compound 65-1],> 100 mg/mL,< 1 mg/mL,,,"degradation kinetics / hydrolysis to parent, in words ([2]; 37° C.): resistant to hydrolysis and failed to release the parent over the course of the study; also recorded: resistant to hydrolysis"
"CCOC(=O)CCC(=O)O[C@H](COc1nsnc1N1CCOCC1)CN(C(=O)[C@H](C)OC(=O)[C@H](C)OC(=O)[C@H](C)OC(=O)[C@H](C)OC(C)=O)C(C)(C)C [Compound 120-1, Timolol-bis-N-acetyl-PLA(n=4)-O-ethyl succinate]",> 50 mg/mL,< 1 mg/mL,,,"degradation kinetics / hydrolysis to parent, in words ([2]; 37° C.): degraded to free Timolol incompletely by day 13"
"CC/C=C\C/C=C\C/C=C\C/C=C\C/C=C\C/C=C\CCC(=O)NS(=O)(=O)c1cc2c(s1)S(=O)(=O)[C@@H](C)C[C@@H]2NCC [Compound 80-3, (4S,6S)-4-Ethylamino-6-methyl-7,7-dioxo-4,5,6,7-tetrahydro-7lambda*6*-thieno[2,3-b]thiopyran-2-sulfonic acid ((4Z,7Z,10Z,13Z,16Z,19Z)-docosa-4,7,10,13,16,19-hexanoyl)-amide]",> 100 mg/mL,< 1 mg/mL,,,"solubility ([1]; organic solvent or mixture, Table 3B, DCM, read-out: Solubility DCM): > 50 mg/mL"
"CCCCCCCCCCCCCCCCCC(=O)O[C@@H](C)C(=O)O[C@@H](C)C(=O)O[C@@H](C)C(=O)O[C@@H](C)C(=O)N1CCN=C1Nc1ccc2nccnc2c1Br [Compound 29-2, Octadecanoic acid (S)-1-[(S)-1-((S)-1-{(S)-2-[2-(5-bromo-quinoxalin-6-ylamino)-4,5-dihydro-imidazol-1-yl]-1-methyl-2-oxo-ethoxycarbonyl}-ethoxycarbonyl)-ethoxycarbonyl]-ethyl ester]",,,> 50 mg/mL,< 1 mg/mL,
"CC(C)OC(=O)CCC/C=C\C[C@@H]1[C@@H](CC[C@@H](O)CCc2ccccc2)[C@H](O)C[C@@H]1O [Latanoprost, reference compound]",,,> 50 mg/mL,< 1 mg/mL,"solubility [1, 7]: > 50 mg/mL"
"CCCCCCCCCCCCCCCCCC(=O)O[C@@H](C)C(=O)O[C@@H](C)C(=O)O[C@@H](C)C(=O)O[C@@H](C)C(=O)NS(=O)(=O)c1cc2c(s1)S(=O)(=O)C(C)CC2NCC (stereo partly drawn) [Compound 12-3, Octadecanoic acid (S)-1-((S)-1-{(S)-1-[(S)-2-(4-ethylamino-6-methyl-7,7-dioxo-4,5,6,7-tetrahydro-7λ*6*-thieno[2,3-b]thiopyran-2-sulfonylamino)-1-methyl-2-oxo-ethoxycarbonyl]-ethoxycarbonyl}-ethoxycarbonyl)-ethyl ester]",,,> 50 mg/mL,< 0.1 mg/mL,"solubility [1, 7]: > 50 mg/mL"
"CC(=O)O[C@@H](C)C(=O)O[C@@H](C)C(=O)N1CCN=C1Nc1ccc2nccnc2c1Br [Compound 25-2, (S)-2-Acetoxy-propionic acid (S)-2-[2-(5-bromo-quinoxalin-6-ylamino)-4,5-dihydro-imidazol-1-yl]-1-methyl-2-oxo-ethyl ester]",,,> 50 mg/mL,< 1 mg/mL,
"CC(=O)OC(C)C(=O)OC(C)C(=O)OC(C)C(=O)OC(C)C(=O)O[C@H](COc1nsnc1N1CCOCC1)CN(C(=O)C(C)OC(=O)C(C)OC(C)=O)C(C)(C)C (some centres unmarked) [Compound 230, Timolol-bis-N-acetyl-PLA(n=2)-O-acetyl PLA(n=4)]",> 50 mg/mL,< 0.007 mg/mL,,,
"CC(=O)N(C[C@@H](COc1nsnc1N1CCOCC1)OC(=O)OC(C)(C)C)C(C)(C)C [Compound 37-2, Timolol-O-Boc-N-acetate]",,,> 50 mg/mL,< 1 mg/mL,
"CCCCCCCCCCCCCCCCCC(=O)O[C@@H](C)C(=O)O[C@@H](C)C(=O)O[C@@H](C)C(=O)O[C@@H](C)C(=O)O[C@@H](C)C(=O)O[C@@H](C)C(=O)O[C@@H](CNC(C)(C)C)COc1nsnc1N1CCOCC1.Cl [Compound 43-1, Octadecanoic acid (5)-1-((S)-1-{(S)-1-[(S)-1-((S)-1-{(S)-1-[(S)-1-(tert-butylamino-methyl)-2-(4-morpholin-4-yl-[1,2,5]thiadiazol-3-yloxy)-ethoxycarbonyl]-ethoxycarbonyl}-ethoxycarbonyl)-ethoxycarbonyl]-ethoxycarbonyl}-ethoxycarbonyl)-ethyl ester hydrochloride]",,,,,"Solubility DMSO ([1]; Table 3A, DMSO): >50 mg/mL; Solubility Water ([1]; Table 3A, water, drug added to 50 mg/mL): 6250 µg/mL; aqueous solubility ([1]; aqueous solution): 6.25 mg/mL"
"COc1cccc(CN(CCO)C(=O)Nc2ccc(-c3cn[nH]c3)cc2)c1 [SR5834, 1-(2-hydroxyethyl)-1-[(3-methoxyphenyl)methyl]-3-[4-(1H-pyrazol-4-yl)phenyl]urea, reference compound]",> 100 mg/mL,< 1 mg/mL,,,
"CCCCCCCCCCCCCCCCCC(=O)O[C@@H](C)C(=O)O[C@@H](C)C(=O)O[C@H](COc1nsnc1N1CCOCC1)CN(C(C)=O)C(C)(C)C [Compound 66-1, N-Acyl-Timolol-PLA (n = 2) Stearate]",> 100 mg/mL,< 1 mg/mL,,,
CC(=O)N(C[C@@H](COc1nsnc1N1CCOCC1)OC(=O)[C@H](C)OC(=O)[C@H](C)O)C(C)(C)C [Compound 69-1],> 100 mg/mL,< 6.3 mg/mL,,,
"CC(=O)O[C@@H](C)C(=O)O[C@@H](C)C(=O)O[C@@H](C)C(=O)O[C@@H](C)C(=O)O[C@@H](C)C(=O)O[C@@H](C)C(=O)O[C@@H](C)C(=O)O[C@@H](C)C(=O)N1CCN=C1Nc1ccc2nccnc2c1Br [Compound 109-1, Brimonidine-acetyl PLA(n=8)]",,,> 50 mg/mL,< 0.1 mg/mL,
Timolol-Bis-Acetyl-PLA (n = 4) [Compound 119-1],,,,,"Solubility DMSO ([1]; Table 3B, DMSO): >50 mg/mL; Solubility Water ([1]; Table 3B, water, drug added to 50 mg/mL): <0.05 µg/mL"
